Assay results as given in patent EP4707280A1, “1,4-CINEOLE DERIVATIVE AND INTERMEDIATE THEREOF, HERBICIDE CONTAINING SAID DERIVATIVE AS ACTIVE INGREDIENT, METHOD FOR USING HERBICIDE, AND METHOD FOR PREPARING AGROCHEMICAL COMPOSITION” (HOKKO CHEMICAL INDUSTRY CO., LTD., priority 2023, dated 2024).

Experiments:
Assay type in all cases: in vivo
[1] = test system: Echinochloa crus-galli var. formosensis; test: Test Example 1: herbicidal effect test by soil application in paddy rice; details: 120 g active ingredient per 10 ares, applied immediately after sowing, flooded pots, 14 days after application; for pest or weed control at 1200 g/ha: Echinochloa crus-galli, soil, 336 h, read-out: weed inhibition rate
Procedure, shortened: (§1)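 Soil-applied test under flooded paddy conditions (~3 cm water) in a glass greenhouse. Seeds were sown shallow (0–1 cm, 30 per species), then compound was dripped in as diluted emulsifiable concentrate at 120 g a.i./10 a.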

[2] = test system: Echinochloa crus-galli; test: Test Example 8: herbicidal effect test by stem and leaf treatment in upland field (low dose); details: 7.5 g per 10 ares, sprayed seven days after sowing, upland soil, 14 days after application; for inhibition at 75 g/ha: Echinochloa crus-galli, read-out: weed inhibition rate
[3] = test system: Digitaria ciliaris; test: as above; details: Digitaria ciliaris; 7.5 g per 10 ares; sprayed seven days after sowing, upland soil; 14 days after application; read-out: weed inhibition rate
[4] = test system: Echinochloa crus-galli; test: Test Example 4: herbicidal effect test by stem and leaf treatment in upland field; details: 120 g per 10 ares, sprayed seven days after sowing, upland soil, 14 days after application; for inhibition at 1200 g/ha: Echinochloa crus-galli, read-out: weed inhibition rate
[5] = test system: Echinochloa crus-galli var. formosensis; test: Test Example 2: herbicidal effect test by application during growth period of paddy rice; details: 120 g per 10 ares, applied seven days after sowing, flooded pots, 14 days after application; for inhibition at 1200 g/ha: Echinochloa crus-galli, read-out: weed inhibition rate
Procedure, shortened: (§2)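 Flooded paddy pot test, greenhouse. Seeds 30/species, 0–1 cm depth, water ~3 cm. EC diluted in water, dropper-applied 7 d post-sowing at 120 g a.i./10 a. Inhibition rate (%) read 14 d after treatment; n=2.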

[6] = test system: Digitaria ciliaris; test: Test Example 4: herbicidal effect test by stem and leaf treatment in upland field; details: 120 g per 10 ares, sprayed seven days after sowing, upland soil, 14 days after application; for inhibition at 1200 g/ha: Digitaria ciliaris, read-out: weed inhibition rate
[7] = test system: Echinochloa crus-galli; test: Test Example 3: herbicidal effect test by soil application in upland field; details: 120 g per 10 ares, sprayed one day after sowing, 14 days after application; for inhibition at 1200 g/ha: Echinochloa crus-galli, read-out: weed inhibition rate
Procedure, shortened: (§3)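 Pre-emergence test: seeds mixed into top 1 cm of alluvial loam upland soil in pots; emulsifiable concentrate diluted in water sprayed on soil one day after sowing at 100 L/10 a, 120 g a.i./10 a. Weed inhibition rate (%) scored at 14 days, in duplicate.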

[8] = test system: Chenopodium album; test: as above; details: 120 g per 10 ares, sprayed one day after sowing, 14 days after application, read-out: weed inhibition rate
Procedure, shortened: as §3

[9] = test system: Echinochloa crus-galli var. formosensis; test: Test Example 6: herbicidal effect test by application during growth period of paddy rice (low dose); details: 7.5 g per 10 ares, applied seven days after sowing, flooded pots, 14 days after application; for inhibition at 75 g/ha: Echinochloa crus-galli, read-out: weed inhibition rate
Procedure, shortened: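 Paddy-soil pots, flooded ~3 cm after sowing weed seeds at 0-1 cm depth, greenhouse-grown. Seven days after sowing, diluted emulsifiable concentrate applied by dropper at 7.5 g active ingredient per 10 ares. Weed inhibition rate (%) scored 14 days after application, in duplicate.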

[10] = test system: Echinochloa crus-galli var. formosensis; test: Test Example 5: herbicidal effect test by soil application in paddy rice (low dose); details: 7.5 g per 10 ares, applied immediately after sowing, flooded pots, 14 days after application; for inhibition at 75 g/ha: Echinochloa crus-galli, soil, 336 h, read-out: weed inhibition rate
Procedure, shortened: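 Pre-emergence paddy test: seeds sown 0–1 cm (30 each), pots flooded ~3 cm, greenhouse. EC dilution dropped into water right after sowing, 7.5 g a.i./10 a. Duplicate pots; weed inhibition rate (%) by formula, day 14.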

[11] = test system: Amaranthus viridis; test: Test Example 3: herbicidal effect test by soil application in upland field; details: 120 g per 10 ares, sprayed one day after sowing, 14 days after application; for inhibition at 1200 g/ha: Amaranthus viridis, read-out: weed inhibition rate
Procedure, shortened: as §3

[12] = test system: Scirpus juncoides; test: Test Example 1: herbicidal effect test by soil application in paddy rice; details: 120 g active ingredient per 10 ares, applied immediately after sowing, flooded pots, 14 days after application; for pest or weed control at 1200 g/ha: Schoenoplectiella juncoides, soil, 336 h, read-out: weed inhibition rate
Procedure, shortened: as §1

[13] = test system: Digitaria ciliaris; test: Test Example 3: herbicidal effect test by soil application in upland field; details: 120 g per 10 ares, sprayed one day after sowing, 14 days after application; for inhibition at 1200 g/ha: Digitaria ciliaris, read-out: weed inhibition rate
Procedure, shortened: as §3

[14] = test system: Monochoria vaginalis; test: Test Example 1: herbicidal effect test by soil application in paddy rice; details: 120 g active ingredient per 10 ares, applied immediately after sowing, flooded pots, 14 days after application; for pest or weed control at 1200 g/ha: Pontederia vaginalis, soil, 336 h, read-out: weed inhibition rate
Method: (§4) Wagner pots with an area of […] were filled with paddy soil, followed by addition of water and incorporation of chemical fertilizer (N:P:K = 16:16:16), after which puddling was performed. After that, seeds of Echinochloa crus-galli var. formosensis, broad-leaved weeds (Lindernia pyxidaria and Monochoria vaginalis), and Scirpus juncoides were sown at a depth of 0 cm to 1 cm, 30 seeds each. Immediately after sowing, the pots were flooded and a water depth of approximately 3 cm was maintained. Subsequent management was conducted in a glass greenhouse. Immediately thereafter, an emulsifiable concentrate prepared according to Formulation Example 5 using the compound shown below was diluted with water, and a specified amount of the diluted solution was applied by dropper. The amount of the active ingredient to be applied was equivalent to 120 g per 10 ares.
(§5) The present test was conducted in duplicate for each chemical concentration group, and the weed inhibition rate (%) was determined 14 days after chemical application using the following formula (Math. 1). [formula]

[15] = test system: Monochoria vaginalis; test: Test Example 2: herbicidal effect test by application during growth period of paddy rice; details: Pontederia vaginalis; 120 g per 10 ares; applied seven days after sowing, flooded pots; 14 days after application; read-out: weed inhibition rate
Procedure, shortened: as §2

[16] = test system: Lindernia pyxidaria; test: Test Example 1: herbicidal effect test by soil application in paddy rice; details: 336 h, 120 g active ingredient per 10 ares, applied immediately after sowing, flooded pots, 14 days after application, read-out: weed inhibition rate
Method: as §4, §5

[17] = test system: Scirpus juncoides; test: Test Example 2: herbicidal effect test by application during growth period of paddy rice; details: 120 g per 10 ares, applied seven days after sowing, flooded pots, 14 days after application
Procedure, shortened: as §2

[18] = test system: Echinochloa crus-galli; test: Test Example 7: herbicidal effect test by soil application in upland field (low dose); details: 7.5 g per 10 ares, sprayed one day after sowing, 14 days after application
Procedure, shortened: (§6)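 Read-out: weed inhibition rate (%) at 14 d post-treatment, duplicate pots per concentration. Seeds sown in the top 1 cm of upland alluvial loam; emulsifiable concentrate diluted in water and sprayed on the soil surface 1 d after sowing at 7.5 g a.i./10 a (100 L/10 a spray volume).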

[19] = test system: Digitaria ciliaris; test: as above; details: 7.5 g per 10 ares, sprayed one day after sowing, 14 days after application
Procedure, shortened: as §6

[20] = test system: Lindernia pyxidaria; test: Test Example 2: herbicidal effect test by application during growth period of paddy rice; details: 120 g per 10 ares, applied seven days after sowing, flooded pots, 14 days after application, read-out: weed inhibition rate
Procedure, shortened: as §2

[21] = test system: Scirpus juncoides; test: Test Example 5: herbicidal effect test by soil application in paddy rice (low dose); details: Schoenoplectiella juncoides, 336 h, 7.5 g per 10 ares, applied immediately after sowing, flooded pots, 14 days after application, read-out: weed inhibition rate
Method: as §5
as §4, with “(Monochoria” for “(Lindernia pyxidaria and Monochoria”, “7.5” for “120”
The present test was conducted in duplicate for each chemical concentration group, and the herbicidal effect was evaluated 14 days after chemical application using the same criteria as in Test Example 1.

CC(C)[C@]12C[C@@H](OCc3ccccc3F)[C@](C)(CC1c1ccccc1)O2 (stereo partly drawn) [1-322, (1S,2R,4R)-2-((2-fluorobenzyl)oxy)-4-isopropyl-1-methyl-5-phenyl-7-oxabicyclo[2.2.1]heptane]
≥ 80%: pest or weed control at 1200 g/ha [1] | inhibition at 75 g/ha [2] | inhibition at 75 g/ha [3] | inhibition at 1200 g/ha [4] | inhibition at 1200 g/ha [5] | inhibition at 1200 g/ha [6] | inhibition at 1200 g/ha [7] | inhibition at 1200 g/ha [8] | inhibition at 75 g/ha [9] | inhibition at 75 g/ha [10]

COc1ccc(CO[C@@H]2C[C@]3(C(C)C)O[C@@]2(C)CC3=O)cc1 [2-346, (1R,4S,5R)-1-isopropyl-5-((4-methoxybenzyl)oxy)-4-methyl-7-oxabicyclo[2.2.1]heptan-2-one]
≥ 80%: inhibition at 1200 g/ha [5] | inhibition at 1200 g/ha [11]

Cc1ccc(CO[C@@H]2C[C@]3(C(C)C)O[C@@]2(C)CC3=O)cc1 [2-350, (1R,4S,5R)-1-isopropyl-4-methyl-5-[(4-methylbenzyl)oxy]-7-oxabicyclo[2.2.1]heptan-2-one]
≥ 80%: pest or weed control at 1200 g/ha [12] | pest or weed control at 1200 g/ha [1] | inhibition at 75 g/ha [2] | inhibition at 1200 g/ha [4] | inhibition at 1200 g/ha [5] | inhibition at 1200 g/ha [6] | inhibition at 1200 g/ha [7] | inhibition at 1200 g/ha [13] | inhibition at 1200 g/ha [8] | inhibition at 75 g/ha [9] | pest or weed control at 1200 g/ha [14] | inhibition at 75 g/ha [10]

CC(C)[C@]12C[C@@H](OCc3ccccc3F)[C@](C)(CC1c1ccccc1F)O2 (stereo partly drawn) [1-922, (1S,2R,4R)-2-((2-fluorobenzyl)oxy)-5-(2-fluorophenyl)-4-isopropyl-1-methyl-7-oxabicyclo[2.2.1]heptane]
≥ 80%: pest or weed control at 1200 g/ha [12] | pest or weed control at 1200 g/ha [1] | inhibition at 1200 g/ha [4] | inhibition at 1200 g/ha [5] | inhibition at 1200 g/ha [15] | inhibition at 1200 g/ha [6] | inhibition at 1200 g/ha [7] | pest or weed control at 1200 g/ha [14] | pest or weed control at 1200 g/ha [16] | inhibition at 75 g/ha [10]

Cc1cccc(C2C[C@]3(C)O[C@@]2(C(C)C)C[C@H]3OCc2ccccc2F)c1 (stereo partly drawn) [1-926, (1S,2R,4R)-2-((2-fluorobenzyl)oxy)-4-isopropyl-1-methyl-5-(m-tolyl)-7-oxabicyclo[2.2.1]heptane]
≥ 80%: pest or weed control at 1200 g/ha [12] | pest or weed control at 1200 g/ha [1] | inhibition at 1200 g/ha [5] | inhibition at 1200 g/ha [7] | inhibition at 1200 g/ha [8] | inhibition at 1200 g/ha [11]

CCOC(C)O[C@H]1C[C@]2(C)O[C@@]1(C(C)C)C[C@H]2OCc1ccccc1F (stereo partly drawn) [1-213, (1R,28,4S,5R)-2-(1-ethoxyethoxy)-5-((2-fluorobenzyl)oxy)-1-isopropyl-4-methyl-7-oxabicyclo[2.2.1]heptane]
≥ 80%: weed inhibition rate [12] | weed inhibition rate [1] | weed inhibition rate [2] | weed inhibition rate [4] | weed inhibition rate [17] | weed inhibition rate [5] | weed inhibition rate [6] | weed inhibition rate [7] | weed inhibition rate [13] | weed inhibition rate [11] | weed inhibition rate [18] | weed inhibition rate [19] | weed inhibition rate [9] | weed inhibition rate [14] | weed inhibition rate [10]

Cc1cccc(CO[C@@H]2C[C@]3(C(C)C)O[C@@]2(C)CC3=O)c1 [2-352, (1R,4S,5R)-1-isopropyl-4-methyl-5-((3-methylbenzyl)oxy)-7-oxabicyclo[2.2.1]heptan-2-one]
≥ 80%: pest or weed control at 1200 g/ha [12] | pest or weed control at 1200 g/ha [1] | inhibition at 1200 g/ha [4] | inhibition at 1200 g/ha ([17]; Schoenoplectiella juncoides, read-out: weed inhibition rate) | inhibition at 1200 g/ha [5] | inhibition at 1200 g/ha [20] | inhibition at 1200 g/ha [6] | inhibition at 1200 g/ha [7] | inhibition at 1200 g/ha [13] | inhibition at 75 g/ha [9] | inhibition at 75 g/ha [10]

CC(C)[C@]12C[C@@H](OCc3ccccc3F)[C@](C)(CC1c1cccc(F)c1)O2 (stereo partly drawn) [1-923, (1S,2R,4R)-2-((2-fluorobenzyl)oxy)-5-(3-fluorophenyl)-4-isopropyl-1-methyl-7-oxabicyclo[2.2.1]heptane]
≥ 80%: pest or weed control at 1200 g/ha [12] | pest or weed control at 1200 g/ha [1] | inhibition at 1200 g/ha [4] | inhibition at 1200 g/ha [5] | inhibition at 1200 g/ha [7] | inhibition at 75 g/ha [21]

CC(C)[C@]12C[C@@H](OCCOCc3ccccc3)[C@](C)(C[C@@H]1Br)O2 [1-725, (1S,2R,4R,5S)-5-bromo-1-methyl-2-(2-phenylmethoxyethoxy)-4-isopropyl-7-oxabicyclo[2.2.1]heptane]
≥ 80%: inhibition at 1200 g/ha [4] | inhibition at 1200 g/ha [5] | inhibition at 1200 g/ha [11]
